According to US20250129093A1, “COMPOSITIONS AND METHODS RELATING TO ATP/P2X7R SIGNALING INHIBITION” (THE CHILDREN'S MEDICAL CENTER CORPORATION, priority 2022, published 2025):
Entries after “also recorded” stand apart in the source; their conditions may differ.

Experiments:
[1] = tested on: P2X7R signaling through eATP; assay: BzATP-stimulated CD4+ T cells from human PBMCs, expression of Th2-related factors; assay type: cell-based; conditions: for inhibition of activation of P2X7R signaling through eATP (expression of Th2-related factors IL-4 and IRF4): human CD4+ T cells stimulated with benzoyl ATP (BzATP)
Text: Peripheral blood mononuclear cell (PBMCs) were isolated from collected human blood samples and recovered CD4+ T cells were purified and treated with different compounds. In particular cells were activated upon stimulation with benzoyl ATP (BzATP) and treated with human P2X7R inhibitor CE-224,535, P2X7 receptor antagonist oATP and the 6 small molecules identified in the bioinformatics and HTVS approaches above.

[2] = tested on: P2X7R−/− mice receiving a Bm12 heart; assay: Heart allograft survival in P2X7R-/- mice receiving a Bm12 heart; assay type: in vivo; conditions: Bm12 heart transplant, p=0.04
Text: (§1) The P2X7R mutation rs3751143 is associated with the development of increased immunological events, particularly with the development of a HyperTh-17 syndrome, which is mainly characterized by an imbalance between T-helper cells which favors generation of Th-17 cells.

[3] = tested on: P2X7R signaling through eATP; conditions: cells of individuals who do not carry the P2X7R mutation; cited from earlier work
C57BL6 (B6) mice = assay: Survival (longevity) of C57BL6 (B6) mice; assay type: in vivo; conditions: 7.5 mg/Kg
Text: Given that administration of P2X7R inhibitors is associated with a slow-down of metabolic processes within activated cells/tissues (9) and the effect of eATP in favoring cell senescence, it is contemplated herein that this mechanism could be responsible for promoting longevity and prolonging survival.

[4] = tested on: CD4+ T cells obtained from individuals carrying the P2X7R mutation; assay: Th17 generation in vitro in CD4+ T cells from individuals carrying the P2X7R mutation; assay type: cell-based, human; conditions: inhibitor added to the cell culture, carriers of P2X7R mutation rs3751143
Text: as §1

For `O=C(O)c1ccccc1-c1ccccc1C(=O)Nc1cccc(-c2nc3ccccc3[nH]2)c1` [compound 6, 2′-[3-(1H-Benzoimidazol-2-yl)-phenylcarbamoyl]-biphenyl-2-carboxylic acid], the “inhibition of activation of P2X7R signaling through eATP (expression of Th2-related factors IL-4 and IRF4)” value (shortened to “inhibition”) [1] was “significative ability to inhibit the activation of P2X7R signaling”.

With `COc1ccc(/C=N\Nc2cc(C)nc(NCc3ccccc3)n2)c(OC)c1` [Compound #5, Benzyl-{4-[N′-(2,4-dimethoxy-benzylidene)-hydrazino]-6-methyl-pyrimidin-2-yl}-amine] the “effect on the expression of Th2-related factors GATA3, IL-4 and IRF4” value ([1]; PBMCs, FIG. 2, compared with CE-224,535 and oATP) was “effect comparable to that of human P2X7R inhibitor CE-224,535 and P2X7 receptor antagonist oATP” and the “inhibition” value [1] was “significative ability to inhibit the activation of P2X7R signaling”.

In the case of `Nc1ncnc2c1ncn2[C@@H](C=O)O[C@@H](C=O)COP(=O)(O)OP(=O)(O)OP(=O)(O)O` [oATP], the allograft survival [2] is listed as “significantly prolongs allograft survival”, the “neutralizing activation of P2X7R signaling through eATP” value [3] is listed as “capable of neutralizing activation of P2X7R signaling” and the MST (C57BL6 (B6) mice) is listed as 19.5 weeks. For the same molecule, the treated animals alive (C57BL6 (B6) mice; at 17 weeks) was 60%, the “survival as compared to untreated controls” value (C57BL6 (B6) mice; p=0.01, 7.5 mg/kg) was “significantly prolongs survival; also recorded: increased survival” and the Th17 generation [4] was “at least partially inhibited; also recorded: partially abrogated”.

With `Cc1ccccc1Nc1nc2nonc2nc1N/N=C\c1cccc2ccccc12` [compound 4, [6-(N′-Naphthalen-1-ylmethylene-hydrazino)-[1,2,5]oxadiazolo[3,4-b]pyrazin-5-yl]-o-tolyl-amine] the “inhibition” value [1] was “significative ability to inhibit the activation of P2X7R signaling”.

For `OC(CNCc1ccccc1)COc1ccc(OCC(O)CNCc2ccccc2)cc1` (centres unmarked) [compound 3, 1-Benzylamino-3-[4-(3-benzylamino-2-hydroxy-propoxy)-phenoxy]-propan-2-ol], the “inhibition” value [1] was “significative ability to inhibit the activation of P2X7R signaling”.
